According to publication PMC10729961, “Putative purine nucleoside interacting residues in the malaria parasite purine uptake transporter PfENT1 are critical for transporter function” (PLOS ONE, 2023):
Entries after “also recorded” stand apart in the source; their conditions may differ.

Legend:
[1] = system: yeast expressing Q135C PfENT1; test: 5-Fluorouridine (5-FUrd) toxicity assay; type: cell-based; details: 500 μM adenine plus 125 μM 5-FUrd, OD600 at 24 h
Method: (§1) 5-FUrd toxicity was measured in a subset of the PfENT1 mutants. Mutants were grown overnight in SDM with 1 mM adenine. Meanwhile, purine auxotrophic yeast were grown in YPD overnight. Yeast strains were spun down and resuspended in sterile water then added to the honeycomb plates with SDM media with NP40 (final concentration of 0.1%) containing either no adenine, 500 μM adenine, or 500 μM adenine plus 125 μM 5-FUrd (Fisher Scientific Cat. #AAJ6208303) with an initial OD600 = 0.05 and a final volume of 150 μL. Typically, 10 μL of yeast (final concentration of resuspended yeast OD600 = around 0.8) were added to 140 μL of media. Each trial contained triplicates. The 100-well honeycomb plate was placed in the Bioscreen C for 24-h under continuous high shaking at 30°C. The endpoint OD600 was measured at 24 h. Each experiment was repeated at least three times on separate days.

[2] = system: yeast expressing D287C PfENT1; test: 5-Fluorouridine (5-FUrd) toxicity assay; type: cell-based; details: 500 μM adenine plus 125 μM 5-FUrd, OD600 at 24 h
Method: as §1

[3] = system: yeast expressing WT PfENT1; test: 5-Fluorouridine (5-FUrd) toxicity assay; type: cell-based; details: 500 μM adenine plus 125 μM 5-FUrd, OD600 at 24 h
Method: as §1

[4] = system: yeast expressing S290C PfENT1; test: 5-Fluorouridine (5-FUrd) toxicity assay; type: cell-based; details: 500 μM adenine plus 125 μM 5-FUrd, OD600 at 24 h
Method: as §1

[5] = system: yeast expressing N51C PfENT1; test: 5-Fluorouridine (5-FUrd) toxicity assay; type: cell-based; details: 500 μM adenine plus 125 μM 5-FUrd, OD600 at 24 h
Method: as §1

[6] = system: purine auxotrophic yeast (ade2Δ, fui1Δ); test: 5-Fluorouridine (5-FUrd) toxicity assay; type: cell-based; details: ade2Δ strain; 500 μM adenine plus 125 μM 5-FUrd; OD600 at 24 h
Method: as §1

[7] = system: yeast expressing L50C PfENT1; test: 5-Fluorouridine (5-FUrd) toxicity assay; type: cell-based; details: 500 μM adenine plus 125 μM 5-FUrd, OD600 at 24 h
Method: as §1

[8] = system: yeast expressing W53C PfENT1; test: 5-Fluorouridine (5-FUrd) toxicity assay; type: cell-based; details: 500 μM adenine plus 125 μM 5-FUrd, OD600 at 24 h
Method: as §1

[9] = system: yeast expressing F286C PfENT1; test: 5-Fluorouridine (5-FUrd) toxicity assay; type: cell-based; details: 500 μM adenine plus 125 μM 5-FUrd, OD600 at 24 h
Method: as §1

[10] = system: yeast expressing R291C PfENT1; test: 5-Fluorouridine (5-FUrd) toxicity assay; type: cell-based; details: 500 μM adenine plus 125 μM 5-FUrd, OD600 at 24 h
Method: as §1

PfENT1 D287A [11] = details: cited from earlier work
PfENT1 R291A [12] = details: yeast expressing R291A, Y190A background; cited from earlier work
PfENT1 R291A [13] = details: cited from earlier work
PfENT1 D287A [14] = details: yeast expressing D287A, Y190A background; cited from earlier work
PfENT1 W53A [15] = details: yeast expressing W53A, Y190A background; cited from earlier work
PfENT1 W53A [16] = details: cited from earlier work
PfENT1 Q135A [17] = details: yeast expressing Q135A, Y190A background; cited from earlier work
PfENT1 Q135A [18] = details: cited from earlier work
PfENT1 S49A = details: cited from earlier work

| Compound | 5-FUrd assay [1] | 5-FUrd assay [2] | 5-FUrd assay [3] | 5-FUrd assay [4] | 5-FUrd assay [5] | 5-FUrd assay [6] | 5-FUrd assay [7] | 5-FUrd assay [8] | 5-FUrd assay [9] | 5-FUrd assay [10] | inosine binding by ITC (PfENT1 D287A [11]) | uptake of radioactive inosine (PfENT1 R291A [12]) | inosine binding by ITC (PfENT1 R291A [13]) | uptake of radioactive inosine (PfENT1 D287A [14]) | uptake of radioactive inosine (PfENT1 W53A [15]) | inosine binding by ITC (PfENT1 W53A [16]) | uptake of radioactive inosine (PfENT1 Q135A [17]) | inosine binding by ITC (PfENT1 Q135A [18]) | inosine binding by ITC (PfENT1 S49A) |
| --- | --- | --- | --- | --- | --- | --- | --- | --- | --- | --- | --- | --- | --- | --- | --- | --- | --- | --- | --- |
| O=c1[nH]c(=O)n([C@@H]2O[C@H](CO)[C@@H](O)[C@H]2O)cc1F [5-FUrd, 5-Fluorouridine] | did grow; also recorded: growth-non-functional* | did grow; also recorded: growth-non-functional* | did not grow; also recorded: killed-functional | did grow; also recorded: growth-non-functional* | did not grow; also recorded: killed-functional | growth-non-functional | did not grow; also recorded: killed-functional | did grow; also recorded: growth-non-functional* | did not grow; also recorded: killed-functional | did grow; also recorded: growth-non-functional* | – | – | – | – | – | – | – | – | – |
| O=c1[nH]cnc2c1ncn2[C@@H]1O[C@H](CO)[C@@H](O)[C@H]1O [inosine] | – | – | – | – | – | – | – | – | – | – | did not bind | did not show uptake | bound with lower affinity | did not show uptake | did not show uptake | bound with lower affinity | did not show uptake | did not bind | did not bind |
